What was measured:
HLA-B*57:01 [1] = target: T1, HLA-B*57:01 (Homo sapiens, UniProt P01889, D201E/D98Y/E176V/E187L/E204Q/E69M/E70A/G107R/I90N/K202T/L105A/L119I/N104I/N87E/Q89R/Q94S/R106L/R155S/R180L/R86G/S101N/S121V/S35A/S48A/T118I/V36M/Y140S/Y91M); test: LC-MRM-MS quantitation of HLA ligands and co-purified abacavir from abacavir treated C1R.B*57:01 cells; type: cell-based; conditions: C1R.B*57:01, 35 µM abacavir
C1R.B*57:01 cells = test: Cellular proteome comparison by label free quantitation LC-MS/MS; type: cell-based, human; conditions: 35 µM abacavir, 48 h, 2,306 proteins, 5% FDR
[2] = test system: abacavir responsive CD8+ T cells; test: Intracellular cytokine staining of abacavir responsive CD8+ T cells stimulated with abacavir treated C1R.B*57:01; type: cell-based, human; conditions: 35 µM abacavir 0-30 h, three T cell lines
Method: Stimulator PBMCs were subsequently added to responder PBMC at a 2:1 responder:stimulator ratio and the final volume of culture made up to 2 ml with RF10. Cells were incubated at 37°C, 5% CO2 and fed with fresh media as required to sustain cell outgrowth. On day 5 of culture, cell media were supplemented with rhIL-2 (Cetus) at 20 U/ml and maintained at this concentration thereafter. […] C1R.B*57:01 were mixed with 1 × 10^5 T cells at a 1:2 ratio in a volume of 200 μl fresh RH10. […] Sigma-Aldrich) was added to a final concentration of 10 μg/ml and incubated a further 4 h. Cells were stained with anti-CD4-PE [clone RPA-T4, Becton Dickinson (BD) Biosciences, USA] and anti-CD8-PerCP-Cy™5.5 (clone SK1, BD Biosciences, 25 min, 4°C), fixed with 1% PFA/PBS (20 min, room temperature), washed in PBS, then permeabilised with 0.3% saponin (Sigma-Aldrich) in PBS containing anti-Interferon-γ (IFNγ)-PE-Cy™7 (clone B27, BD Biosciences) and anti-tumour necrosis factor (TNF)-PE-V450 (clone Mab11, BD Biosciences), and acquired by flow cytometry using an LSR II flow cytometer and BD […]™ software (BD). The percentage of CD8^+ T cells producing IFNγ and TNF was determined via analysis using FlowJo software (BD).

HLA-B*57:01 [3] = target: T1, HLA-B*57:01; conditions: 60 µM abacavir
HLA-B*57:01 [4] = target: T1, HLA-B*57:01; conditions: 721.220.B*57:01 cells, 60 µM abacavir, 37 and 50°C vs 4°C
HLA-B*57:01 [5] = target: T1, HLA-B*57:01; conditions: 721.220.B*57:01 +/- tapasin, 60 µM abacavir 20 hrs, Brefeldin A 0-6 hrs
HLA-B*57:01 [6] = target: T1, HLA-B*57:01; conditions: ref [20]–[22]; cited from earlier work

## Nc1nc(NC2CC2)c2ncn([C@H]3C=C[C@@H](CO)C3)c2n1 [abacavir]
HLA-B*57:01 [1]
  Time of abacavir treatment after which changes in the immunopeptidome were evident: 2 h
HLA-B*57:01 [1]; 0-16 h
  Co-purification of HLA-B*57:01-bound abacavir over the time course: increasing amounts
C1R.B*57:01 cells
  Change in protein expression of the cellular proteome: no protein showed significant changes in expression
[2]
  Immunogenicity of abacavir treated antigen presenting cells (IFNγ and/or TNF production by CD8+ T cells): increase in antigen presenting cell immunogenicity was observed over the first 12 h
HLA-B*57:01 [3]; 721.220.B*57:01.tapasin cells
  Effect on HLA-B*57:01 maturation (Endo-H resistance), tapasin-reconstituted: unaffected
HLA-B*57:01 [3]; 721.220.B*57:01 cells
  Effect on HLA-B*57:01 maturation (Endo-H resistance), tapasin absent: did not significantly alter this pattern of biogenesis
HLA-B*57:01 [4]
  Effect on thermal stability profile of HLA-B*57:01, tapasin absent: no significant impact on the thermal stability profile
HLA-B*57:01 [5]
  Effect on expression level and stability of cell surface HLA-B*57:01: did not significantly alter either the expression level or the stability
HLA-B*57:01 [6]
  Odds ratio of hypersensitivity reaction with HLA-B*57:01: > 500

From article PMC8170132, “Kinetics of Abacavir-Induced Remodelling of the Major Histocompatibility Complex Class I Peptide Repertoire” (Frontiers in Immunology, 2021)
